Key:
Experiment in all cases: normalised viability (% of control), CellTiter-Blue; higher = more viable cells (about 100 = DMSO control)
Settings in all cases: incubation time: 72 h
[1] = tested on: HCC1599
Outline: (§1)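 Vehicle (100) and a positive kill control (0) anchored the normalisation of each plate, and Z'-factor was used for quality control. Breast cancer cell lines in 20 µl suspension were incubated 72 h over compound in 5 µl medium in 384-well plates, followed by CellTiter-Blue at 560/590 nm. The value is normalised viability at a single listed concentration of the series.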

[2] = tested on: HCC1143
Outline: as §1

[3] = tested on: HDQ-P1
Outline: as §1

[4] = tested on: BT-549
Outline: as §1

[5] = tested on: MDA-MB-468
Outline: as §1

[6] = tested on: CAL-51
Outline: as §1

[7] = tested on: SK-BR-3
Outline: as §1

[8] = tested on: CAL-85-1
Outline: as §1

[9] = tested on: MDA-MB-231
Outline: as §1

[10] = tested on: HCC1937
Outline: as §1

[11] = tested on: MFM-223
Outline: as §1

[12] = tested on: MDA-MB-453
Outline: as §1

[13] = tested on: MDA-MB-436
Outline: as §1

[14] = tested on: Hs578T
Outline: as §1

[15] = tested on: CAL-120
Outline: as §1

[16] = tested on: DU-4475
Method: (§2)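 DSRT, CellTiter-Blue viability, 72 h incubation. Signal is normalised to DMSO and benzethonium chloride controls. Value is the normalised response at dose 7.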

[17] = tested on: HDQ-P1; remark: listed apart in the source
Method: as §2

[18] = tested on: CAL-148
Method: as §2

[19] = tested on: CAL-51; remark: listed apart in the source
Method: as §2

[20] = tested on: CAL-85-1; remark: listed apart in the source
Method: as §2

[21] = tested on: MDA-MB-453; remark: listed apart in the source
Method: as §2

[22] = tested on: HCC1599; remark: listed apart in the source
Outline: as §1

[23] = tested on: DU-4475; remark: listed apart in the source
Outline: as §1

[24] = tested on: HDQ-P1; remark: listed apart in the source
Outline: as §1

[25] = tested on: BT-549; remark: listed apart in the source
Outline: as §1

[26] = tested on: MDA-MB-468; remark: listed apart in the source
Outline: as §1

[27] = tested on: CAL-148; remark: listed apart in the source
Outline: as §1

[28] = tested on: CAL-51; remark: listed apart in the source
Outline: as §1

[29] = tested on: BT-474
Outline: as §1

[30] = tested on: CAL-85-1; remark: listed apart in the source
Outline: as §1

[31] = tested on: MDA-MB-231; remark: listed apart in the source
Outline: as §1

[32] = tested on: HCC1937; remark: listed apart in the source
Outline: as §1

[33] = tested on: MDA-MB-436; remark: listed apart in the source
Outline: as §1

[34] = tested on: Hs578T; remark: listed apart in the source
Outline: as §1

CC[C@]1(O)C[C@H]2CN(CCc3c([nH]c4ccccc34)[C@@](C(=O)OC)(c3cc4c(cc3OC)N(C=O)[C@H]3[C@@](O)(C(=O)OC)[C@H](OC(C)=O)[C@]5(CC)C=CCN6CC[C@]43[C@@H]65)C2)C1 [Vincristine]
Settings | normalised viability [%]
[1], 1 nM | 84.1
[1], 10 nM | 106
[2], 1 nM | 71
[2], 10 nM | 40.7
[3], 0.3 nM | 100
[3], 3 nM | 96.4
[4], 1 nM | 82.7
[4], 10 nM | 43.7
[5], 1 nM | 54.2
[5], 10 nM | 41.2
[6], 0.3 nM | 102
[6], 3 nM | 103
[7], 1 nM | 33.8
[7], 10 nM | 15.9
[8], 0.3 nM | 95.6
[8], 3 nM | 86.1
[9], 1 nM | 73.8
[9], 10 nM | 27.5
[10], 1 nM | 99.2
[10], 10 nM | 23.1
[11], 1 nM | 91.1
[11], 10 nM | 85.5
[12], 0.3 nM | 112
[12], 3 nM | 65
[13], 1 nM | 105
[13], 10 nM | 70.6
[14], 1 nM | 97.2
[14], 10 nM | 15.5
[15], 1 nM | 58.2
[15], 10 nM | 23.4
[16], 100 nM | 34.1
[16], 1000 nM | 8.18
[17], 100 nM | 36.1
[17], 1000 nM | 43.1
[18], 100 nM | 16
[18], 1000 nM | 26
[19], 100 nM | 27
[19], 1000 nM | 10.3
[20], 100 nM | 43.9
[20], 1000 nM | 34.7
[21], 100 nM | 34.3
[21], 1000 nM | 36.4
[22], 1000 nM | 73.7
[22], 10000 nM | 45.7
[23], 10 nM | 56
[23], 100 nM | 19.5
[24], 10 nM | 46.4
[24], 100 nM | 43.8
[25], 1000 nM | 14.6
[25], 10000 nM | 20.2
[26], 1000 nM | 41.1
[26], 10000 nM | 38.4
[27], 10 nM | 21.4
[27], 100 nM | 20.6
[28], 10 nM | 70.6
[28], 100 nM | 18
[29], 1000 nM | 55.9
[29], 10000 nM | 47.9
[30], 10 nM | 33.4
[30], 100 nM | 39.2
[31], 1000 nM | 14.4
[31], 10000 nM | 14.5
[32], 1000 nM | 13.2
[32], 10000 nM | 16.1
[33], 1000 nM | 30.2
[33], 10000 nM | 50.3
[34], 1000 nM | 12.7
[34], 10000 nM | 15.9
